pIC50: −log10 of the molar value.
Legend:
[1] = biological target: T1, Prostaglandin G/H synthase 1 (Ovis aries) (UniProt P05979); test: Inhibition of prostaglandin G/H synthase 1 enzyme from ram seminal vesicles by spectrophotometric method at 10 uM
T1 sequence (whole entry): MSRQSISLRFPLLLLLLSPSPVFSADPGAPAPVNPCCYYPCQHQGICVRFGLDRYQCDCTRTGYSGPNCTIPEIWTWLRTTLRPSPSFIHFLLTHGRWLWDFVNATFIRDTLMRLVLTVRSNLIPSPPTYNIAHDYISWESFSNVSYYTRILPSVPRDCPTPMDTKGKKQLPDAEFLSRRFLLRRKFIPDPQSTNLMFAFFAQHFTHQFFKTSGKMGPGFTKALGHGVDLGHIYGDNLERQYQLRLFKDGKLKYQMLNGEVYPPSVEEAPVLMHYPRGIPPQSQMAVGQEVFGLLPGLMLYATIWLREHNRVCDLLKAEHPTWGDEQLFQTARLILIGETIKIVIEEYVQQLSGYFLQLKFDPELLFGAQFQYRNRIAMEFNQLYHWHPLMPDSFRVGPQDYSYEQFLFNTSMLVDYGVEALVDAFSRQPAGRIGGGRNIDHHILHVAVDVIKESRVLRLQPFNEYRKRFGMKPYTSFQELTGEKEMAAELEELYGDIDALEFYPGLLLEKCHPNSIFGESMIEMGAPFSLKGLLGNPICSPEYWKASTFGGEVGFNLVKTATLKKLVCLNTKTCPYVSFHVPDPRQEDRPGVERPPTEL

[2] = biological target: T2, Prostaglandin G/H synthase 1 (Ovis aries, UniProt P05979); test: Inhibition of prostaglandin G/H synthase 1 enzyme from ram seminal vesicles by spectrophotometric method
T2 sequence (P05979 whole entry): T1 sequence (whole entry)

Rattus norvegicus = test: Activity in Carrageenan induced rat paw model at 30 mg/Kg; Range = 25-45%; assay type: functional
[3] = biological target: T3, Prostaglandin G/H synthase 2 (Homo sapiens, UniProt P35354); test: Inhibition of human Prostaglandin G/H synthase 2 in sf-9 cells by spectrophotometric method; assay type: cell-based, Sf9
T3 sequence (P35354 whole entry): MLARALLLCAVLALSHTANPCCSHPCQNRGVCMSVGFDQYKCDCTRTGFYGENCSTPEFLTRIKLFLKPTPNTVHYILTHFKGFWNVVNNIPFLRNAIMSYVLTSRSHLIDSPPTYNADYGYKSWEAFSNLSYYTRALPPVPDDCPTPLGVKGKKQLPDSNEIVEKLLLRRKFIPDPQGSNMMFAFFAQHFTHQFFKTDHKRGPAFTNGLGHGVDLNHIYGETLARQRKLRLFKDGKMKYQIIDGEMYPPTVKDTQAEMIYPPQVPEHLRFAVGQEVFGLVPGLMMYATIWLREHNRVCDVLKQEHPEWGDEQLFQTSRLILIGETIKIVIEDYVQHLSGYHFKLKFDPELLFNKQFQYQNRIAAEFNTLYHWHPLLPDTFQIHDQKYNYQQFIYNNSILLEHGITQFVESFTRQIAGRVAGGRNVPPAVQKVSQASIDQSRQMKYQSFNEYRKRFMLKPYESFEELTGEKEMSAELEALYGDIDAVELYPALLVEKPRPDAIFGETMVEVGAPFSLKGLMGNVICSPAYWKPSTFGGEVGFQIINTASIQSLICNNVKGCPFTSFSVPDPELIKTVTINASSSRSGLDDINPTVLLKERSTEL

[4] = biological target: T3, Prostaglandin G/H synthase 2; test: Inhibition of human Prostaglandin G/H synthase 2 in sf-9 cells by spectrophotometric method

CS(=O)(=O)c1ccc(C(Nc2nccs2)C(=O)c2ccc(F)cc2)cc1 (centres undefined)
inhibition [1]: -0%

C[S+]([O-])c1ccc(C(Nc2nccs2)C(=O)c2ccc(F)cc2)cc1 (centres undefined)
pIC50 [2]: 3.30
inhibition [1]: -0%
Activity (Rattus norvegicus): <45%
pIC50 [3]: 5.68

Cc1nn(-c2ccccc2)c2c1c(O)nc1ccccc12
inhibition [1]: 82%

NS(=O)(=O)c1ccc(C(Nc2ccccn2)C(=O)c2ccc(F)cc2)cc1 (centres undefined)
inhibition [1]: 30%

Cc1nn(-c2ccc(S(N)(=O)=O)cc2)c2c1c(O)nc1ccc([N+](=O)[O-])cc12
inhibition [1]: 40%
Activity (Rattus norvegicus): <45%

Cc1nn(-c2ccc(S(N)(=O)=O)cc2)c2c1c(O)nc1ccccc12
inhibition [1]: 20%

Cc1nn(-c2ccc(S(=O)(=O)NCc3ccccc3)cc2)c2c1c(O)nc1ccc([N+](=O)[O-])cc12
inhibition [1]: 78%

CS(=O)(=O)c1ccc(C(=O)C(Nc2nccs2)c2ccccc2)cc1 (centres undefined)
inhibition [1]: 10%

NS(=O)(=O)c1ccc(C(Nc2nccs2)C(=O)c2ccc(F)cc2)cc1 (centres undefined)
inhibition [1]: -0%

CSc1ccc(C(=O)C(Nc2ncccc2Cl)c2ccccc2)cc1 (centres undefined)
inhibition [1]: 53%

C[S+]([O-])c1ccc(C(Nc2cccnc2)C(=O)c2ccc(F)cc2)cc1 (centres undefined)
pIC50 [2]: 4.30
inhibition [1]: -0%
Activity (Rattus norvegicus): <45%
pIC50 [3]: 6.30

NS(=O)(=O)c1ccc(C(Nc2ncccn2)C(=O)c2ccc(F)cc2)cc1 (centres undefined)
inhibition [1]: -0%

Cc1nn(-c2ccc(S(N)(=O)=O)cc2)c2c1c(=O)[nH]c1ccc([N+](=O)[O-])cc12
pIC50 [2]: 5.33
pIC50 [4]: 6.62

NS(=O)(=O)c1ccc(C(Nc2nc3ccccc3s2)C(=O)c2ccc(F)cc2)cc1 (centres undefined)
inhibition [1]: 23%

Cc1nn(-c2ccccc2)c2c1c(O)nc1ccc([N+](=O)[O-])cc12
pIC50 [2]: 5.30
inhibition [1]: 46%
Activity (Rattus norvegicus): <45%
pIC50 [4]: 6.26

C[S+]([O-])c1ccc(C(=O)C(Nc2nccs2)c2ccccc2)cc1 (centres undefined)
inhibition [1]: 29%

Cc1nn(-c2ccc(S(N)(=O)=O)c(CO)c2)c2c1c(O)nc1ccccc12
inhibition [1]: -0%

Cc1nn(-c2ccc(S(N)(=O)=O)c(CO)c2)c2c1c(O)nc1ccc([N+](=O)[O-])cc12
inhibition [1]: -0%

From ChEMBL document CHEMBL1149214, “1,2-Diaryl-1-ethanone and pyrazolo [4,3-c] quinoline-4-one as novel selective cyclooxygenase-2 inhibitors” (Bioorg Med Chem Lett, 2004)
